“And” between values parts separate entries of the source, which are not always exact repeats. Equal values may be shown once. Inconclusive results and toxic doses are left out. The calls were made as follows: active = survival T/C of 150% or more; inactive = T/C below 125% in these data.
Test system: BDF1 mice, P388 leukemia ip, median survival T/C
Experiment: NCI In Vivo Anticancer Drug Screen. Data for tumor model P388 Leukemia (intraperitoneal) in B6D2F1 (BDF1) mice
Conditions: endpoint: median survival time, higher = longer survival
Method in brief: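 In tumour-bearing mice, survival after compound treatment is set against the vehicle group and given as a quotient.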

[1] = dose: 100.0 mg/kg/injection, schedule: Q04DX003 (ip), vehicle: Klucel (hydroxypropylcellulose) (HPC)
[2] = dose: 200.0 mg/kg/injection, schedule: Q01DX009 (ip), vehicle: Klucel (hydroxypropylcellulose) (HPC)
[3] = dose: 200.0 mg/kg/injection, schedule: Q04DX003 (ip), vehicle: Klucel (hydroxypropylcellulose) (HPC)
[4] = dose: 400.0 mg/kg/injection, schedule: Q01DX009 (ip), vehicle: Klucel (hydroxypropylcellulose) (HPC)
[5] = dose: 400.0 mg/kg/injection, schedule: Q04DX003 (ip), vehicle: Klucel (hydroxypropylcellulose) (HPC)
[6] = dose: 12.5 mg/kg/injection, schedule: Q01DX009 (ip), vehicle: saline with Tween-80
[7] = dose: 50.0 mg/kg/injection, schedule: Q01DX009 (ip), vehicle: saline with Tween-80
[8] = dose: 100.0 mg/kg/injection, schedule: Q01DX009 (ip), vehicle: saline with Tween-80
[9] = dose: 200.0 mg/kg/injection, schedule: Q01DX009 (ip), vehicle: saline with Tween-80
[10] = dose: 75.0 mg/kg/injection, schedule: Q01DX009 (ip), vehicle: saline with Tween-80
[11] = dose: 150.0 mg/kg/injection, schedule: Q01DX009 (ip), vehicle: saline with Tween-80
[12] = dose: 25.0 mg/kg/injection, schedule: Q04DX003 (ip), vehicle: saline with Tween-80

Measured: T/C

CCN(CC)c1cc(Cl)c(C=O)cc1Br
inactive: [1] 104 % of control | [2] 100 % of control | [3] 95 % of control | [4] 95 % of control | [5] 100 % of control

CN1C(=O)C23CC4=CC=CC(O)C4N2C(=O)C1(CO)SS3 (centres undefined)
inactive: dose: 0.19 mg/kg/injection, schedule: Q01DX009 (ip), vehicle: saline with Tween-80 100 % of control | dose: 0.38 mg/kg/injection, schedule: Q01DX009 (ip), vehicle: saline with Tween-80 100 % of control | dose: 0.75 mg/kg/injection, schedule: Q01DX009 (ip), vehicle: saline with Tween-80 108 % of control and 109 % of control

N#C/C(=C\c1ccncc1)c1ccccc1
inactive: [6] 92 % of control | [7] 98 % of control | [8] 112 % of control | [9] 98 % of control

CCN(CC)c1ccc(NC(=O)NC(C)C)cc1
inactive: dose: 50.0 mg/kg/injection, schedule: Q04DX003 (ip), vehicle: saline with Tween-80 90 % of control | dose: 100.0 mg/kg/injection, schedule: Q04DX003 (ip), vehicle: saline with Tween-80 90 % of control | dose: 200.0 mg/kg/injection, schedule: Q04DX003 (ip), vehicle: saline with Tween-80 86 % of control

CCC(=O)OCc1c(C)nc2sccn12
inactive: dose: 25.0 mg/kg/injection, schedule: Q01DX001 (ip), vehicle: saline 96 % of control | dose: 50.0 mg/kg/injection, schedule: Q01DX001 (ip), vehicle: saline 102 % of control | dose: 100.0 mg/kg/injection, schedule: Q01DX001 (ip), vehicle: saline 105 % of control

Clc1cccc(NC2=NCCN=C(Nc3cccc(Cl)c3Cl)SS2)c1Cl
inactive: [7] 102 % of control | [8] 100 % of control | [9] 96 % of control

CC(C)(C)OC(=O)NC(CCC(=O)O)(Cc1ccccc1)C(=O)NC(CCC(=O)OCc1ccccc1)C(=O)OCc1ccccc1 (centres undefined)
inactive: dose: 100.0 mg/kg/injection, schedule: Q01DX005 (ip), vehicle: saline with Tween-80 86 % of control | dose: 200.0 mg/kg/injection, schedule: Q01DX005 (ip), vehicle: saline with Tween-80 86 % of control

O=C(NCCc1ccccc1)Nc1ccccc1
inactive: [10] 95 % of control | [11] 104 % of control | dose: 300.0 mg/kg/injection, schedule: Q01DX009 (ip), vehicle: saline with Tween-80 109 % of control

S=C1NC(c2ccccc2)NC(c2ccccc2)S1 (centres undefined)
inactive: dose: 100.0 mg/kg/injection, schedule: Q01DX001 (ip), vehicle: Klucel (hydroxypropylcellulose) (HPC) 95 % of control | dose: 100.0 mg/kg/injection, schedule: Q01DX009 (ip), vehicle: Klucel (hydroxypropylcellulose) (HPC) 111 % of control | [1] 91 % of control and 100 % of control | dose: 200.0 mg/kg/injection, schedule: Q01DX001 (ip), vehicle: Klucel (hydroxypropylcellulose) (HPC) 95 % of control | [2] 111 % of control | [3] 91 % of control and 108 % of control | [4] 111 % of control | [5] 87 % of control and 108 % of control

CN(C)CCCNC(=O)c1ccc2c(c1O)C(=O)c1ccccc1C2=O
inactive: dose: 50.0 mg/kg/injection, schedule: Q01DX005 (ip), vehicle: saline 118 % of control

Cc1ccc(Nc2n[nH]c(=S)s2)cc1C
inactive: [8] 104 % of control | [9] 109 % of control | dose: 400.0 mg/kg/injection, schedule: Q01DX009 (ip), vehicle: saline with Tween-80 109 % of control

Cc1c(C)c(O)c2c(c1O)C(=O)C=C(Cl)C2=O
inactive: dose: 6.25 mg/kg/injection, schedule: Q04DX003 (ip), vehicle: saline with Tween-80 121 % of control | dose: 12.5 mg/kg/injection, schedule: Q04DX003 (ip), vehicle: saline with Tween-80 119 % of control and 120 % of control | [12] 110 % of control and 120 % of control

CC(=O)OC1=NC(C)c2c1cc(OC(C)=O)[nH]c2=O (centres undefined)
inactive: dose: 6.25 mg/kg/injection, schedule: Q01DX009 (ip), vehicle: Klucel (hydroxypropylcellulose) (HPC) 88 % of control | dose: 12.5 mg/kg/injection, schedule: Q01DX009 (ip), vehicle: Klucel (hydroxypropylcellulose) (HPC) 96 % of control | dose: 25.0 mg/kg/injection, schedule: Q01DX009 (ip), vehicle: Klucel (hydroxypropylcellulose) (HPC) 96 % of control | [1] 112 % of control | dose: 133.0 mg/kg/injection, schedule: Q04DX003 (ip), vehicle: Klucel (hydroxypropylcellulose) (HPC) 121 % of control

CC1(C)CC(=O)C(C)(C)C(=O)C1
inactive: dose: 3.0 mg/kg/injection, schedule: Q04DX003 (ip), vehicle: saline with Tween-80 95 % of control | dose: 6.0 mg/kg/injection, schedule: Q04DX003 (ip), vehicle: saline with Tween-80 108 % of control | dose: 6.25 mg/kg/injection, schedule: Q01DX009 (ip), vehicle: saline with Tween-80 100 % of control | dose: 12.0 mg/kg/injection, schedule: Q04DX003 (ip), vehicle: saline with Tween-80 100 % of control | [6] 104 % of control | [12] 95 % of control

O=C1NC(=O)C(Cc2ccccc2)(c2ccccc2)N1 (centres undefined)
inactive: [10] 97 % of control | [11] 100 % of control

O=C(O)CCS(=O)(=O)CCC(=O)O
inactive: [7] 100 % of control | [8] 100 % of control | [9] 100 % of control

CSc1nc2nc(Cl)c(Cl)nc2[nH]1
inactive: dose: 6.25 mg/kg/injection, schedule: Q01DX009 (ip), vehicle: saline 104 % of control | dose: 25.0 mg/kg/injection, schedule: Q01DX009 (ip), vehicle: saline 96 % of control | dose: 25.0 mg/kg/injection, schedule: Q04DX003 (ip), vehicle: saline 99 % of control | dose: 50.0 mg/kg/injection, schedule: Q04DX003 (ip), vehicle: saline 102 % of control and 109 % of control | dose: 100.0 mg/kg/injection, schedule: Q01DX009 (ip), vehicle: saline 88 % of control | dose: 100.0 mg/kg/injection, schedule: Q04DX003 (ip), vehicle: saline 95 % of control and 103 % of control | dose: 200.0 mg/kg/injection, schedule: Q01DX009 (ip), vehicle: saline 104 % of control | dose: 200.0 mg/kg/injection, schedule: Q04DX003 (ip), vehicle: saline 109 % of control | dose: 400.0 mg/kg/injection, schedule: Q04DX003 (ip), vehicle: saline 103 % of control

CC1=C(Cl)C(Cl)(Cl)C(=O)C(=O)C1(Cl)Cl
inactive: dose: 6.25 mg/kg/injection, schedule: Q01DX009 (ip), vehicle: other 100 % of control | dose: 12.5 mg/kg/injection, schedule: Q01DX009 (ip), vehicle: other 109 % of control | dose: 25.0 mg/kg/injection, schedule: Q01DX009 (ip), vehicle: other 113 % of control
